Measured values as given in the supplement of paper PMC10307832.

Key:
Experiment in all cases: relative viability (nuclei count vs DMSO), 5 days (fraction); higher = more cells survive
NCI-H647 = system: NCI-H647
In short: (§1)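 For relative viability, nuclei counts in treated wells were divided by those in vehicle wells. Lung cancer cell lines had been pin-tool dosed in 1536-well plates the day after seeding and cultured for 5 days, then fixed and stained in one step (final 0.05% Triton X-100, 1% formaldehyde, 1 ug/ml Hoechst) and imaged at 4×. Doses were one drug alone or a fixed anchor-drug dose plus five library-drug doses (not always all listed) in √10 steps, and values are duplicate-plate medians.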

HOP-62 = system: HOP-62
In short: as §1

NCI-H1915 = system: NCI-H1915
In short: as §1

LCLC-97TM1 = system: LCLC-97TM1
In short: as §1

NCI-H2023 = system: NCI-H2023
In short: as §1

SW 1573 = system: SW 1573
In short: as §1

NCI-H1993 = system: NCI-H1993
In short: as §1

NCI-H2347 = system: NCI-H2347
In short: as §1

NCI-H2126 = system: NCI-H2126
In short: as §1

SK-LU-1 = system: SK-LU-1
In short: as §1

NCI-H727 = system: NCI-H727
In short: as §1

LXF-289 = system: LXF-289
In short: as §1

NCI-H322M = system: NCI-H322M
In short: as §1

NCI-H1650 = system: NCI-H1650
In short: as §1

PC-14 = system: PC-14
In short: as §1

NCI-H2342 = system: NCI-H2342
In short: as §1

EPLC-272H = system: EPLC-272H
In short: as §1

NCI-H2009 = system: NCI-H2009
In short: as §1

EMC-BAC-2 = system: EMC-BAC-2
In short: as §1

H3255 = system: H3255
In short: as §1

NCI-H661 = system: NCI-H661
In short: as §1

NCI-H2085 = system: NCI-H2085
In short: as §1

## O=C(O)c1ccc(-c2c[nH]c3ncc(-c4ccccc4)cc23)cc1C1CCCC1 + Cc1cc(Nc2cc(N3CCN(C)CC3)nc(Sc3ccc(NC(=O)C4CC4)cc3)n2)n[nH]1 [Tozasertib] (partner 0.1 µM)
NCI-H647; first compound 0.04 µM
  relative viability: 0.223
NCI-H647; first compound 0.1265 µM
  relative viability: 0.381
NCI-H647; first compound 0.4 µM
  relative viability: 0.337
NCI-H647; first compound 1.265 µM
  relative viability: 0.22
HOP-62; first compound 0.04 µM
  relative viability: 0.393
HOP-62; first compound 0.1265 µM
  relative viability: 0.332
HOP-62; first compound 0.4 µM
  relative viability: 0.304
HOP-62; first compound 1.265 µM
  relative viability: 0.308
NCI-H1915; first compound 0.04 µM
  relative viability: 0.445
NCI-H1915; first compound 0.1265 µM
  relative viability: 0.427
NCI-H1915; first compound 0.4 µM
  relative viability: 0.364
NCI-H1915; first compound 1.265 µM
  relative viability: 0.275
LCLC-97TM1; first compound 0.04 µM
  relative viability: 0.338
LCLC-97TM1; first compound 0.1265 µM
  relative viability: 0.315
LCLC-97TM1; first compound 0.4 µM
  relative viability: 0.243
LCLC-97TM1; first compound 1.265 µM
  relative viability: 0.188
NCI-H2023; first compound 0.04 µM
  relative viability: 0.374
NCI-H2023; first compound 0.1265 µM
  relative viability: 0.39
NCI-H2023; first compound 0.4 µM
  relative viability: 0.318
NCI-H2023; first compound 1.265 µM
  relative viability: 0.242
SW 1573; first compound 0.04 µM
  relative viability: 0.183
SW 1573; first compound 0.1265 µM
  relative viability: 0.194
SW 1573; first compound 0.4 µM
  relative viability: 0.211
SW 1573; first compound 1.265 µM
  relative viability: 0.148
NCI-H1993; first compound 0.04 µM
  relative viability: 0.556
NCI-H1993; first compound 0.1265 µM
  relative viability: 0.604
NCI-H1993; first compound 0.4 µM
  relative viability: 0.55
NCI-H1993; first compound 1.265 µM
  relative viability: 0.606
NCI-H2347; first compound 0.04 µM
  relative viability: 0.606
NCI-H2347; first compound 0.1265 µM
  relative viability: 0.643
NCI-H2347; first compound 0.4 µM
  relative viability: 0.522
NCI-H2347; first compound 1.265 µM
  relative viability: 0.5
NCI-H2126; first compound 0.04 µM
  relative viability: 0.84
NCI-H2126; first compound 0.1265 µM
  relative viability: 0.833
NCI-H2126; first compound 0.4 µM
  relative viability: 0.868
NCI-H2126; first compound 1.265 µM
  relative viability: 0.644
SK-LU-1; first compound 0.04 µM
  relative viability: 0.296
SK-LU-1; first compound 0.1265 µM
  relative viability: 0.347
SK-LU-1; first compound 0.4 µM
  relative viability: 0.298
SK-LU-1; first compound 1.265 µM
  relative viability: 0.292
NCI-H727; first compound 0.04 µM
  relative viability: 0.67
NCI-H727; first compound 0.1265 µM
  relative viability: 0.533
NCI-H727; first compound 0.4 µM
  relative viability: 0.407
NCI-H727; first compound 1.265 µM
  relative viability: 0.578
LXF-289; first compound 0.04 µM
  relative viability: 0.229
LXF-289; first compound 0.1265 µM
  relative viability: 0.187
LXF-289; first compound 0.4 µM
  relative viability: 0.126
LXF-289; first compound 1.265 µM
  relative viability: 0.143
NCI-H322M; first compound 0.04 µM
  relative viability: 0.472
NCI-H322M; first compound 0.1265 µM
  relative viability: 0.521
NCI-H322M; first compound 0.4 µM
  relative viability: 0.452
NCI-H322M; first compound 1.265 µM
  relative viability: 0.437
NCI-H1650; first compound 0.04 µM
  relative viability: 0.458
NCI-H1650; first compound 0.1265 µM
  relative viability: 0.388
NCI-H1650; first compound 0.4 µM
  relative viability: 0.372
NCI-H1650; first compound 1.265 µM
  relative viability: 0.295
PC-14; first compound 0.04 µM
  relative viability: 0.599
PC-14; first compound 0.1265 µM
  relative viability: 0.638
PC-14; first compound 0.4 µM
  relative viability: 0.484
PC-14; first compound 1.265 µM
  relative viability: 0.508
NCI-H2342; first compound 0.04 µM
  relative viability: 0.588
NCI-H2342; first compound 0.1265 µM
  relative viability: 0.422
NCI-H2342; first compound 0.4 µM
  relative viability: 0.445
NCI-H2342; first compound 1.265 µM
  relative viability: 0.521
EPLC-272H; first compound 0.04 µM
  relative viability: 0.295
EPLC-272H; first compound 0.1265 µM
  relative viability: 0.313
EPLC-272H; first compound 0.4 µM
  relative viability: 0.274
EPLC-272H; first compound 1.265 µM
  relative viability: 0.0995
NCI-H2009; first compound 0.04 µM
  relative viability: 0.734
NCI-H2009; first compound 0.1265 µM
  relative viability: 0.776
NCI-H2009; first compound 0.4 µM
  relative viability: 0.681
NCI-H2009; first compound 1.265 µM
  relative viability: 0.564
EMC-BAC-2; first compound 0.04 µM
  relative viability: 0.29
EMC-BAC-2; first compound 0.1265 µM
  relative viability: 0.283
EMC-BAC-2; first compound 0.4 µM
  relative viability: 0.272
EMC-BAC-2; first compound 1.265 µM
  relative viability: 0.272
H3255; first compound 0.04 µM
  relative viability: 0.524
H3255; first compound 0.1265 µM
  relative viability: 0.693
H3255; first compound 0.4 µM
  relative viability: 0.618
H3255; first compound 1.265 µM
  relative viability: 0.604
NCI-H661; first compound 0.04 µM
  relative viability: 0.367
NCI-H661; first compound 0.1265 µM
  relative viability: 0.36
NCI-H661; first compound 0.4 µM
  relative viability: 0.353
NCI-H661; first compound 1.265 µM
  relative viability: 0.34
NCI-H2085; first compound 0.04 µM
  relative viability: 0.772
NCI-H2085; first compound 0.1265 µM
  relative viability: 0.829
NCI-H2085; first compound 0.4 µM
  relative viability: 0.598
NCI-H2085; first compound 1.265 µM
  relative viability: 0.52
